Assays:
Assay type in all cases: biochemical
PIP4K2B = molecular target: T1, PIP4K2B (Homo sapiens, UniProt P78356); test: Trans-FI P kinase assay PIP4K2B (Table 4); conditions: compounds listed under IC50 bins; read-out: Trans-FI P kinase assays: PIP4K2B IC50
T1 construct: made in house; host or cells: E. coli
T1 sequence (P78356 1-416): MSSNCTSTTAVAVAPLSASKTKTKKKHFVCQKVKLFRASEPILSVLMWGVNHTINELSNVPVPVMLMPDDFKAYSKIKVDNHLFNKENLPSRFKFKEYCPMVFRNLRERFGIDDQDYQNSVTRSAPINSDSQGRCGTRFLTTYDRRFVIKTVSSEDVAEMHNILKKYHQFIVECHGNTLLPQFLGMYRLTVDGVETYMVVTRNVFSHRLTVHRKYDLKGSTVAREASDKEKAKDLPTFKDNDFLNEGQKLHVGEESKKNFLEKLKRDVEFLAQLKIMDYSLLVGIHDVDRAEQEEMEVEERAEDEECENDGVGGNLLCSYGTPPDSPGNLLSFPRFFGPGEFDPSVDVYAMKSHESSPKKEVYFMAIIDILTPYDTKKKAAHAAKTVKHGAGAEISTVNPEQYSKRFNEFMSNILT
Outline: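 Transcreener FI detection (Ex 584/Em 623) of GDP, converted via calibration curve, gives IC50 from residual activity versus log concentration (highest 4.8 μM). Reaction: 80 μM PI5P plus DOPE carrier, 100 μM GTP, 5 nM GST-tagged enzyme, pH 7.3 HEPES with MgCl2 and 5% DMSO, 2 h after 1 h enzyme-compound preincubation at 27° C.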

PIP4K2A [1] = molecular target: T2, PIP4K2A (Homo sapiens, UniProt P48426); test: ADP-glo kinase assay PIP4K 2A (Table 3); set-up: made in house; host or cells: E. coli; conditions: compounds listed under IC50 bins
T2 sequence (P48426 1-406): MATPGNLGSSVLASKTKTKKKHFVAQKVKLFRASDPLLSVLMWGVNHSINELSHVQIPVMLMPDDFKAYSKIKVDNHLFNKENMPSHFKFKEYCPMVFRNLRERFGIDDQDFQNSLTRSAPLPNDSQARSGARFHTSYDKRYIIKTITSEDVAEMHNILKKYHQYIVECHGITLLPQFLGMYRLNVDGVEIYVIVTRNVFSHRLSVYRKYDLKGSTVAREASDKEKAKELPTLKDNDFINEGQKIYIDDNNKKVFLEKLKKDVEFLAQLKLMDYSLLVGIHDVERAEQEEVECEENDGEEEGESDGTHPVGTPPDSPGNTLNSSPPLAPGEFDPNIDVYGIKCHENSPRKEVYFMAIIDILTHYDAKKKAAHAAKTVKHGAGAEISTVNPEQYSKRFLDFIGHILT
Outline: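 Full-length PIP4K2A (4 nM in the mix) with 100 μM PI(5)P diC8 pre-incubated 15 min with compound in MOPS pH 7.2, 25 mM MgCl2; ATP added (60 μM solution), 1 h at RT. ADP formed read by ADP-Glo luminescence; 10-point curves versus DMSO controls fitted to IC50.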

PIP4K2A [2] = molecular target: T2, PIP4K2A; test: Kinase Assay PIP4K2 A (Table 2); set-up: 4 nM PIP4K2A (full length protein, SignalChem); purchased SignalChem; conditions: compounds listed under IC50 bins
Outline: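 Full-length PIP4K2A (4 nM in the added mix, with 100 μM PI(5)P diC8) pre-incubated 15 min at RT with compounds (10-point, 3-fold series) in 20 mM MOPS pH 7.2, 25 mM MgCl2, 0.005% Tween 20. ATP added from a 60 μM solution, 1 h at RT; ADP-Glo luminescence, IC50 fitted from % inhibition versus DMSO.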

| SMILES | IC50 (PIP4K2B) | IC50 (PIP4K2A [1]) | IC50 (PIP4K2A [2]) |
| --- | --- | --- | --- |
| CN(C)C(=O)c1ccc(-c2ccc(Nc3cncc(NC(=O)c4ccccn4)c3)nc2)cc1 [Example 128, N-(5-((5-(4-(dimethylcarbamoyl)phenyl)pyridin-2-yl)amino)pyridin-3-yl)picolinamide] | 10 to 100 nM | 100 to 1000 nM | 10 to 100 nM |
| CN(C)C(=O)c1ccc(-c2ccc(Nc3cncc(NC(=O)CC#N)c3)nc2)cc1 [Example 122, 4-(6-((5-(2-cyanoacetamido)pyridin-3-yl)amino)pyridin-3-yl)-N,N-dimethylbenzamide] | 10 to 100 nM | 100 to 1000 nM | 10 to 100 nM |
| CN(C)C/C=C/C(=O)Nc1ccc(CCC(=O)Nc2cncc(Nc3ccc(-c4ccc(C(=O)N(C)C)cc4)cn3)c2)cc1 [Example 119, (E)-4-(6-((5-(3-(4-(4-(dimethylamino)but-2-enamido)phenyl)propanamido)pyridin-3-yl)amino)pyridin-3-yl)-N,N-dimethylbenzamide] | 10 to 100 nM | 10 to 100 nM | 1 to 10 nM |
| CN(C)C(=O)c1ccc(-c2ccc(Nc3cncc(NC(=O)c4cccc(F)c4)c3)nc2)cc1 [Example 140, 4-(6-((5-(3-fluorobenzamido)pyridin-3-yl)amino)pyridin-3-yl)-N,N-dimethylbenzamide] | 10 to 100 nM | 10 to 100 nM | 10 to 100 nM |
| CN(C)C/C=C/C(=O)N1CCC(C(=O)Nc2cccc(CCC(=O)Nc3cncc(Nc4ccc(-c5ccc(C(=O)N(C)C)cc5)cn4)c3)c2)CC1 [Example 110, (E)-1-(4-(dimethylamino)but-2-enoyl)-N-(3-(3-((5-((5-(4-(dimethylcarbamoyl)phenyl)pyridin-2-yl)amino)pyridin-3-yl)amino)-3-oxopropyl)phenyl)piperidine-4-carboxamide] | > 1000 nM | 100 to 1000 nM | 100 to 1000 nM |
| O=C1CCCN1c1ccc(-c2ccc(Nc3cnc4c(c3)N(C(=O)C3(O)CC3)CCO4)nc2)cc1 [Example 233, 1-(4-(6-((1-(1-hydroxycyclopropane-1-carbonyl)-2,3-dihydro-1H-pyrido[2,3-b][1,4]oxazin-7-yl)amino)pyridin-3-yl)phenyl)pyrrolidin-2-one] | 10 to 100 nM | 1 to 10 nM | 1 to 10 nM |
| CN(C)C(=O)c1ccc(-c2ccc(Nc3cncc(NC(=O)c4cccc5[nH]cnc45)c3)nc2)cc1 [Example 232, N-(5-((5-(4-(dimethylcarbamoyl)phenyl)pyridin-2-yl)amino)pyridin-3-yl)-1H-benzo[d]imidazole-7-carboxamide] | 10 to 100 nM | 10 to 100 nM | 1 to 10 nM |
| CN(C)CC(=O)Nc1cncc(Nc2ccc(-c3ccc(C(=O)N(C)C)cc3)cn2)c1 [Example 125, 4-(6-((5-(2-(dimethylamino)acetamido)pyridin-3-yl)amino)pyridin-3-yl)-N,N-dimethylbenzamide] | 10 to 100 nM | 100 to 1000 nM | 100 to 1000 nM |
| O=C1CCCN1c1ccc(-c2ccc(Nc3cnc4c(c3)N3C(=O)C(O)C[C@H]3CO4)nc2)cc1F (stereo partly drawn) [Example 267, (6aS)-2-((5-(3-fluoro-4-(2-oxopyrrolidin-1-yl)phenyl)pyridin-2-yl)amino)-8-hydroxy-6,6a,7,8-tetrahydro-9H-pyrido[2,3-b]pyrrolo[1,2-d][1,4]oxazin-9-one] | 10 to 100 nM | 10 to 100 nM | 1 to 10 nM |
| CN(C)C(=O)c1ccc(-c2ccc(Nc3cncc(NC(=O)CCc4ccc(N)cc4)c3)nc2)cc1 [Example 118, 4-(6-((5-(3-(4-aminophenyl)propanamido)pyridin-3-yl)amino)pyridin-3-yl)-N,N-dimethylbenzamide] | 10 to 100 nM | 10 to 100 nM | 10 to 100 nM |
| CN(C)C(=O)c1ccc(-c2ccc(Nc3cncc(NC(=O)c4ccc5c(c4)B(O)OC5)c3)nc2)cc1 [Example 133, N-(5-((5-(4-(dimethylcarbamoyl)phenyl)pyridin-2-yl)amino)pyridin-3-yl)-1-hydroxy-1,3-dihydrobenzo[c][1,2]oxaborole-6-carboxamide] | 10 to 100 nM | 10 to 100 nM | 10 to 100 nM |
| COCCC(=O)N1CCN(c2cncc(Nc3ccc(-c4ccc(N5CCCC5=O)cc4)cn3)c2)CC1 [Example 241, 1-(4-(6-((5-(4-(3-methoxypropanoyl)piperazin-1-yl)pyridin-3-yl)amino)pyridin-3-yl)phenyl)pyrrolidin-2-one] | 10 to 100 nM | 100 to 1000 nM | 10 to 100 nM |
| CN(C)C/C=C/C(=O)Nc1cccc(CCC(=O)Nc2cncc(Nc3ccc(-c4ccc(C(=O)N(C)C)cc4)cn3)c2)c1 [Example 103, (E)-4-(6-((5-(3-(3-(4-(dimethylamino)but-2-enamido)phenyl)propanamido)pyridin-3-yl)amino)pyridin-3-yl)-N,N-dimethylbenzamide] | 10 to 100 nM | 10 to 100 nM | 1 to 10 nM |
| O=C1CCCN1c1ccc(-c2ccc(Nc3cnc4c(c3)N3C(=O)CC[C@H]3CO4)nc2)cc1F [Example 246, (S)-2-((5-(3-fluoro-4-(2-oxopyrrolidin-1-yl)phenyl)pyridin-2-yl)amino)-6,6a,7,8-tetrahydro-9H-pyrido[2,3-b]pyrrolo[1,2-d][1,4]oxazin-9-one] | 10 to 100 nM | 1 to 10 nM | 1 to 10 nM |
| CC(C)S(=O)(=O)N1CCOc2ncc(Nc3ccc(-c4ccc(N5CCCC5=O)cc4)cn3)cc21 [Example 153, 1-(4-(6-((1-(isopropylsulfonyl)-2,3-dihydro-1H-pyrido[2,3-b][1,4]oxazin-7-yl)amino)pyridin-3-yl)phenyl)pyrrolidin-2-one] | 10 to 100 nM | 100 to 1000 nM | 10 to 100 nM |
| CN(C)C(=O)c1ccc(-c2ccc(Nc3cncc(NC(=O)CCc4cccc(NC(=O)OC(C)(C)C)c4)c3)nc2)cc1 [Example 101, tert-butyl (3-(3-((5-((5-(4-(dimethylcarbamoyl)phenyl)pyridin-2-yl)amino)pyridin-3-yl)amino)-3-oxopropyl)phenyl)carbamate] | 10 to 100 nM | 100 to 1000 nM | 10 to 100 nM |
| CN(C)C(=O)c1ccc(-c2ccc(Nc3cncc(N4CCN(Cc5cccc(NC(=O)CCc6cccc(N)c6)c5)C4=O)c3)nc2)cc1 [Example 224, 4-(6-((5-(3-(3-(3-(3-aminophenyl)propanamido)benzyl)-2-oxoimidazolidin-1-yl)pyridin-3-yl)amino)pyridin-3-yl)-N,N-dimethylbenzamide] | 10 to 100 nM | 1 to 10 nM | 1 to 10 nM |
| Cc1nc2ncc(Nc3ccc(-c4ccc(C(=O)N(C)C)cc4)cn3)cc2o1 [Example 61, N,N-dimethyl-4-(6-((2-methyloxazolo[4,5-b]pyridin-6-yl)amino)pyridin-3-yl)benzamide] | > 1000 nM | 100 to 1000 nM | 100 to 1000 nM |
| CC(C)(C)C(=O)N1CCOc2ncc(Nc3ccc(-c4ccc(N5CCCC5=O)cc4)cn3)cc21 [Example 155, 1-(4-(6-((1-pivaloyl-2,3-dihydro-1H-pyrido[2,3-b][1,4]oxazin-7-yl)amino)pyridin-3-yl)phenyl)pyrrolidin-2-one] | 10 to 100 nM | 1 to 10 nM | 1 to 10 nM |
| CNC(=O)Nc1cncc(Nc2ccc(-c3ccc(C(=O)N(C)C)cc3)cn2)c1 [Example 124, N,N-dimethyl-4-(6-((5-(3-methylureido)pyridin-3-yl)amino)pyridin-3-yl)benzamide] | 10 to 100 nM | 10 to 100 nM | 10 to 100 nM |
| CN(C)C(=O)c1ccc(-c2ccc(Nc3cncc(N4CCC(Cc5cccc(N)c5)C4=O)c3)nc2)cc1 (stereo not drawn) [Example 134, 4-(6-((5-(3-(3-aminobenzyl)-2-oxopyrrolidin-1-yl)pyridin-3-yl)amino)pyridin-3-yl)-N,N-dimethylbenzamide] | 10 to 100 nM | 10 to 100 nM | 10 to 100 nM |

Source: patent publication US11667651B2, “Aminopyridine derivatives as phosphatidylinositol phosphate kinase inhibitors” (HiberCell, Inc., priority 2017, dated 2023)
